{"source": "patent US7759350B2", "about": "“Pyrimidine carboxamides” (Orchid Research Laboratories Ltd., priority 2005, dated 2010)", "key": {"IL-6": {"system": "IL-6", "test": "In vitro measurement of IL-6 in human PBMC", "type": "cell-based", "details": "Conc. 0.1 μM, LPS", "how_it_was_run": "(§1)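 Human PBMC (0.5 million/well) preincubated with compound 15 min at 37° C., then stimulated with E. coli LPS (1 μg/ml) for 18 h at 37° C. Cytokine in culture medium quantified by ELISA.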"}, "[1]": {"molecular_target": "purified recombinant COX-1 enzyme (Homo sapiens, UniProt P23219)", "sequence (P23219 24-599)": "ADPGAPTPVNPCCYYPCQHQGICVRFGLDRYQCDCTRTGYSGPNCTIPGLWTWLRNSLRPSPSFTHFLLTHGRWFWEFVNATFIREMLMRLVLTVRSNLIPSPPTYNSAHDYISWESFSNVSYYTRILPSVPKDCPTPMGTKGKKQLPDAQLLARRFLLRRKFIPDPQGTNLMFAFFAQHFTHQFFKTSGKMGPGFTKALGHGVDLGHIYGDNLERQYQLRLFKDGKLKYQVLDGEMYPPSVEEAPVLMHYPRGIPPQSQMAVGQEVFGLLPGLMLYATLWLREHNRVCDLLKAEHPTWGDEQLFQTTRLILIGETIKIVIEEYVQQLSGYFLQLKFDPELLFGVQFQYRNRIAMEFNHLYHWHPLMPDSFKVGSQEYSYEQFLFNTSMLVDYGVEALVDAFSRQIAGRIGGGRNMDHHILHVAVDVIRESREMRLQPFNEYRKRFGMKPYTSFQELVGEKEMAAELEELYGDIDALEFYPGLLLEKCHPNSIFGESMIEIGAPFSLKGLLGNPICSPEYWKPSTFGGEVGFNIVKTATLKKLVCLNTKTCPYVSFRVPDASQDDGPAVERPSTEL", "test": "COX-1 enzyme based assay", "type": "biochemical", "details": "Conc. 10 μM", "experimental": "COX-1 and COX-2 Enzyme Based Assay\nCOX-2 enzyme based assays were carried out to check the inhibitory potential of test compounds on the production of prostaglandin by purified recombinant COX-1/COX-2 enzyme (Proc. Nat. Acad. Sci. USA, 88, 2692-2696, 1991; Clin. Immunoassay 15, 116-120, 1992) In this assay, the potential of the test compound to inhibit the production of prostaglandin either by COX-1 or COX-2 from arachidonic acid (substrate) was measured. This was an enzyme based in-vitro assay to evaluate selective COX inhibition with good reproducibility.\nArachidonic acid was converted to PGH2 (Intermediate product) by COX1/COX-2 in presence or absence of the test compound. The reaction was carried out at 37° C. and after 2 minutes it was stopped by adding 1M HCl. Intermediate products PGH2 was converted to a stable Prostanoid product PGF2α by SnCl2 reduction. The amount of PGF2α produced in the reaction was inversely proportional to the COX inhibitory potential of the test compound. The prostanoid product was quantified via enzyme immunoassay (EIA) using a broadly specific antibody that binds to all the major forms of Prostaglandin, using Cayman ELISA kit as per the procedure outlined by the manufacturer Cayman Chemicals, Ann Arbor, USA)."}, "DU145": {"system": "DU145", "test": "Anti-cancer screen (MTT), DU145", "type": "cell-based", "details": "Homo sapiens, DU-145, 48 hours"}, "IL-1β": {"system": "IL-1β", "test": "In vitro measurement of IL-1β in human PBMC", "type": "cell-based", "details": "Conc. 0.1 μM, LPS", "how_it_was_run": "as §1"}, "TNF-α": {"system": "TNF-α", "test": "In vitro measurement of TNF-α in human PBMC", "type": "cell-based", "details": "at 1 μM, LPS", "experimental": "In Vitro Measurement of Tumor Necrosis Factor Alpha (TNF-α)\nThis assay determines the effect of test compounds on the production of TNF-α in human Peripheral Blood Mononuclear Cells (PBMC). Compounds were tested for their ability to inhibit the activity of TNF-α in human PBMC. PBMC were isolated from blood (from healthy volunteers) using BD Vacutainer CPT™ (Cell preparation tube, BD Bio Science) and suspended in RPMI medium (Physiol. Res. 52; 593-598, 2003). The test compounds were pre-incubated with PBMC (0.5 million/incubation well) for 15 minutes at 37° C. and then stimulated with Lipopolysaccharide (Escherichia coli: B4; 1 μg/ml) for 18 hours at 37° C. in 5% CO2. The levels of TNF-α in the cell culture medium were estimated using enzyme linked Immunosorbent assay performed in a 96 well format as per the procedure of the manufacturer (R&D Systems, Inc. 614 McKinley Place Nebr., Minneapolis, Minn. 55413, USA)."}, "[2]": {"system": "Carrageenan induced paw edema in rat", "test": "Carrageenan induced paw edema test in rat", "type": "in vivo", "details": "5 mg/kg oral; male wistar rats; 3 hours after carrageenan", "experimental": "Carrageenan Induced Paw Edema Test in Rat\nThe carrageenan paw edema test was performed as described by Winter et al (Proc. Soc. Exp. Biol. Med, 111, 544, 1962). Male wistar rats were selected with body weights equivalent within each group. The rats were fasted for eighteen hours with free access to water. The rats were dosed orally with the test compound suspended in vehicle containing 0.25% carboxymethylcellulose and 0.5% Tween 80. The control rats were administered with vehicle alone. After an hour, the rats were injected with 0.1 ml of 1% Carrageenan solution in 0.9% saline into the sub-plantar surface of the right hind paw. Paw volume was measured using digital plethysmograph before and after 3 hours of carrageenan injection. The average of foot swelling in drug treated animals was compared with that of control animals. Anti-inflammatory activity was expressed as the percentage inhibition of edema compared with control group [Arzneim-Forsch/Drug Res., 43 (I), 1,44-50,1993; Otterness and Bliven, Laboratory Models for Testing NSAIDs, In Non-Steroidal Anti-Inflammatory Drugs, (J. Lombardino, ed. 1985)]."}, "NCI-H460": {"system": "NCI-H460", "test": "Anti-cancer screen (MTT), NCI-H460", "type": "cell-based", "details": "Homo sapiens, NCI-H460; 48 hours, MTT"}}}
{"compound": "CNc1nc(-c2ccncc2)nc(SC)c1C(=O)Nc1ccc(OC)cc1", "note": "[Example 14, N-(4-Methoxyphenyl)-4-(methylamino)-6-(methylthio)-2-pyridin-4-ylpyrimidine-5-carboxamide]", "values": [{"measurement": "inhibition at 0.1 µM", "setting": "IL-6", "value": 28.2, "unit": "%"}, {"measurement": "COX-1 Inhibition (%)", "setting": "[1]", "value": "Not Active"}, {"measurement": "GI50", "setting": "DU145", "value": 2.75, "unit": "µM"}, {"measurement": "IL-1β Inhibition (%)", "setting": "IL-1β", "value": "Not active"}, {"measurement": "inhibition at 1 µM", "setting": "TNF-α", "value": 36.8, "unit": "%"}, {"measurement": "Inhibition of edema (%) at 5 mg/kg", "setting": "[2]", "value": 31.02, "unit": "%"}, {"measurement": "GI50", "setting": "NCI-H460", "value": 5.15, "unit": "µM"}]}
